From article PMC7734590, “Identification of a Selective RelA Inhibitor Based on DSE-FRET Screening Methods” (International Journal of Molecular Sciences, 2020)
Where two headings read alike, the source gives them in different places.

Experiments:
RelA = RelA (Homo sapiens, UniProt Q04206); assay: DSE-FRET RelA–DNA binding inhibition; format: biochemical; parameters: Kinetic assay RelA Inhibition % ΔRFU(60 min-0 min) / RelA HTS % Inhibition / RelA Retest % Inhibition Run1 / RelA Retest % Inhibition Run2 / RelA Retest % Inhibition Avg. / Kinetic assay RelA % Inhibition ΔRFU(60 min-0 min): dose or concentration left out as unconfirmed
p52 = target: T1, p52 (Homo sapiens, UniProt Q00653); assay: DSE-FRET p52–DNA binding inhibition; format: biochemical; parameters: p52 Retest % Inhibition Run2 / p52 Retest % Inhibition Avg. / Kinetic assay p52 Inhibition % ΔRFU(60 min-0 min) / p52 HTS % Inhibition / p52 Retest % Inhibition Run1: dose or concentration left out as unconfirmed
T1 sequence (Q00653 1-454 limits assumed): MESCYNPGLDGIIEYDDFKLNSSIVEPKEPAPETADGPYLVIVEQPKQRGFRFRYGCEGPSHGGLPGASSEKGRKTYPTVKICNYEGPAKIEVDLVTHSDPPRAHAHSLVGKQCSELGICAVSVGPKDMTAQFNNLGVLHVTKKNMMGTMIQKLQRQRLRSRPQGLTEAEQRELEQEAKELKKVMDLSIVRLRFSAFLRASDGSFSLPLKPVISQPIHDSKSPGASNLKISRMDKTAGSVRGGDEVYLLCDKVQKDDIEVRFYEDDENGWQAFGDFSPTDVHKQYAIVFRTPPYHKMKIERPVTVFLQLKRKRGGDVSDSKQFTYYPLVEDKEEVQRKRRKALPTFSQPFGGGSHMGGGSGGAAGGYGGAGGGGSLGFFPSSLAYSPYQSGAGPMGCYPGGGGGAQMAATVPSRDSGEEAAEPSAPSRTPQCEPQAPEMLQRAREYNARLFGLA

[1] = HTS, known drugs, 10 µM, read-out: RelA HTS % Inhibition @ 10 µM
[2] = kinetic assay, 60 min-0 min, 10 µM, read-out: Kinetic assay @ 10 µM RelA % Inhibition ΔRFU(60 min-0 min)
[3] = retest, Run1, 10 µM, read-out: RelA Retest % Inhibition @ 10 µM Run1
[4] = retest, Run2, 10 µM, read-out: RelA Retest % Inhibition @ 10 µM Run2
[5] = retest, average of Run1 and Run2, 10 µM, read-out: RelA Retest % Inhibition @ 10 µM Avg.
[6] = HTS, known drugs, 10 µM, read-out: p52 HTS % Inhibition @ 10 µM
[7] = kinetic assay, 60 min-0 min, 10 µM, read-out: Kinetic assay @ 10 µM p52 % Inhibition ΔRFU(60 min-0 min)
[8] = retest, Run1, 10 µM, read-out: p52 Retest % Inhibition @ 10 µM Run1
[9] = retest, Run2, 10 µM, read-out: p52 Retest % Inhibition @ 10 µM Run2
[10] = retest, average of Run1 and Run2, 10 µM, read-out: p52 Retest % Inhibition @ 10 µM Avg.
[11] = kinetic assay, ΔRFU 60 min-0 min

RelA, sequence (Q04206 19-306 limits assumed): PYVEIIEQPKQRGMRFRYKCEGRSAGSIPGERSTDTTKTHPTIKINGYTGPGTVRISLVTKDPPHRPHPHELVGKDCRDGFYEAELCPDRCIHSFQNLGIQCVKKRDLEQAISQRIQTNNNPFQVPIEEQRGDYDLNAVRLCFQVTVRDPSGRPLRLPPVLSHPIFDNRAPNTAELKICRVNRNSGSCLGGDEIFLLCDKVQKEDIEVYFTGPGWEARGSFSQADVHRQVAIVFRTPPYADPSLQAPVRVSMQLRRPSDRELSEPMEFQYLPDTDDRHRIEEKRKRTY

SMILES | inhibition at 10 µM (RelA; [1]) [%] | inhibition at 10 µM (RelA; [2]) [%] | inhibition at 10 µM (RelA; [3]) [%] | inhibition at 10 µM (RelA; [4]) [%] | inhibition at 10 µM (RelA; [5]) [%] | inhibition at 10 µM (p52; [6]) [%] | inhibition at 10 µM (p52; [7]) [%] | inhibition at 10 µM (p52; [8]) [%] | inhibition at 10 µM (p52; [9]) [%] | inhibition at 10 µM (p52; [10]) [%] | Kinetic assay p52 % Inhibition ΔRFU(60 min-0 min) (p52; kinetic assay, 60 min-0 min) [%] | Kinetic assay RelA % Inhibition ΔRFU(60 min-0 min) (RelA; kinetic assay, 60 min-0 min) [%] | further results
CC(=O)Oc1cccc2c1C(=O)c1c(OC(C)=O)cc(C(=O)O)cc1C2=O [Diacerein] | 97.4 | 4 | 51.6 | 57.2 | 54.4 | 72.2 | 3 | 46.8 | 54 | 50.4 | – | – | –
Cc1cc(-c2ccc(/N=N/c3c(S(=O)(=O)O)cc4cc(S(=O)(=O)O)cc(N)c4c3O)c(C)c2)ccc1/N=N/c1c(S(=O)(=O)O)cc2cc(S(=O)(=O)O)cc(N)c2c1O [Trypan blue] | – | – | – | – | – | – | – | – | – | – | – | – | Hit Judgement of: RelA (RelA; 1 = judged hit after retest): 1; inhibition at 5 µg/mL (RelA; HTS, 5 µg/mL, NPDepo hits, read-out: RelA HTS % Inhibition @ 5 µg/mL): 54.8%; inhibition at 5 µg/mL (RelA; Retest Run1, 5 µg/mL, read-out: RelA Retest % Inhibition @ 5 µg/mL Run1): 62%; inhibition at 5 µg/mL (RelA; Retest Run2, 5 µg/mL, read-out: RelA Retest % Inhibition @ 5 µg/mL Run2): 69%; inhibition at 5 µg/mL (RelA; Retest average of Run1 and Run2, 5 µg/mL, read-out: RelA Retest % Inhibition @ 5 µg/mL Avg.): 65.5%; inhibition at 5 µg/mL (RelA; kinetic assay, 5 µg/mL, ΔRFU 60 min-0 min, read-out: Kinetic assay @ 5 µg/mL RelA Inhibition % ΔRFU(60 min-0 min)): 26%; Hit Judgement of: p52 (p52; 1 = judged hit after retest): 1; inhibition at 5 µg/mL (p52; HTS, 5 µg/mL, NPDepo hits, read-out: p52 HTS % Inhibition @ 5 µg/mL): 2.8%; inhibition at 5 µg/mL (p52; Retest Run1, 5 µg/mL, read-out: p52 Retest % Inhibition @ 5 µg/mL Run1): 15.1%; inhibition at 5 µg/mL (p52; Retest Run2, 5 µg/mL, read-out: p52 Retest % Inhibition @ 5 µg/mL Run2): 16.4%; inhibition at 5 µg/mL (p52; Retest average of Run1 and Run2, 5 µg/mL, read-out: p52 Retest % Inhibition @ 5 µg/mL Avg.): 15.8%; inhibition at 5 µg/mL (p52; kinetic assay, 5 µg/mL, ΔRFU 60 min-0 min, read-out: Kinetic assay @ 5 µg/mL p52 Inhibition % ΔRFU(60 min-0 min)): 7%
CC(C)(CO)[C@@H](O)C(=O)NCCCO [DEXPANTHENOL] | 242 | -4.64 | 226 | 246 | 236 | 241 | -1.23 | 207 | 231 | 219 | – | – | –
CCN1C(=O)C(=CC=C2Oc3ccccc3N2CCC(=O)O)N(C)C1=S | – | – | – | – | – | – | – | – | – | – | – | – | RelA HTS % Inhibition (RelA; HTS, NPDepo hits): 107.7%; Kinetic assay RelA Inhibition % ΔRFU(60 min-0 min) (RelA; [11]): -18%; p52 HTS % Inhibition (p52; HTS, NPDepo hits): 115.0%; Kinetic assay p52 Inhibition % ΔRFU(60 min-0 min) (p52; [11]): -27%
COc1cccc2c1C(=O)c1c(O)c3c(c(O)c1C2=O)C[C@@](O)(C(C)=O)C[C@@H]3O[C@H]1C[C@H](N)[C@H](O)[C@H](C)O1 [DAUNORUBICIN] | – | – | – | – | – | – | – | – | – | – | -16 | – | –
O=C1NC(=O)c2c1c1c3ccccc3[nH]c1c1[nH]c3ccccc3c21 [Arcyriaflavin A] | – | – | – | – | – | – | – | – | – | – | -3.54 | -3.51 | –
COc1cc2c(cc1OC)-c1cc3nc4ccccc4nc3n1C(C)(C)C2 [YM 90709] | – | – | – | – | – | – | – | – | – | – | -1.43 | -3.67 | –
Cc1ccc(C(=O)Nc2ccc(S(=O)(=O)[O-])c3cc(S(=O)(=O)[O-])cc(S(=O)(=O)[O-])c23)cc1NC(=O)c1cccc(NC(=O)Nc2cccc(C(=O)Nc3cc(C(=O)Nc4ccc(S(=O)(=O)[O-])c5cc(S(=O)(=O)[O-])cc(S(=O)(=O)[O-])c45)ccc3C)c2)c1.[Na+].[Na+].[Na+].[Na+].[Na+].[Na+] [Suramin hexasodium salt] | – | – | – | – | – | – | – | – | – | – | 7 | – | Kinetic assay @ 50 µM p52 Inhibition % ΔRFU(120 min-0 min) (p52; 96 well plate, 50 µM, 120 min-0 min): 73%; p52 HTS % Inhibition (p52; HTS, known drugs): 4.7%; p52 Retest % Inhibition Run1 (p52; Retest Run1): 4.9%; p52 Retest % Inhibition Run2 (p52; Retest Run2): 5.3%; p52 Retest % Inhibition Avg. (p52; Retest average of Run1 and Run2): 5.1%
O=C1NC(=O)c2c1c1c3ccccc3n3c1c1c2c2ccccc2n1C1CCC3O1 [SB 218078] | – | – | – | – | – | – | – | – | – | – | 5 | 13 | –
Cl[C@H]1[C@H](Cl)[C@@H](Cl)[C@@H](Cl)[C@H](Cl)[C@H]1Cl [LINDANE] | 29.3 | -1.86 | 6.1 | 5.6 | 5.9 | 31.4 | -1.69 | 5.5 | 6.4 | 5.9 | – | – | –
